Laboratory results taken from the supplement of paper PMC4862054.
Blank lines part the entries; values can stand above or below the molecule they belong to.

How the values were obtained:
[1] = tested on: MDA-MB-468; experiment: drug sensitivity score (DSS), CellTiter-Blue viability (DSS (AUC-based score)); higher = stronger viability inhibition; extreme values may be limits of the assay; settings: incubation time: 72 h
Protocol: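 DSRT with the CellTiter-Blue (resazurin reduction) viability readout, fluorescence 560/590 nm, 72 h incubation. Plates were normalised to DMSO and benzethonium chloride controls. DSS is computed from the area under the fitted dose-response curve (5 or 9 concentrations).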

[2] = tested on: MDA-MB-468; settings: 72 h
Method in brief: (§1)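 Breast cancer cell lines in 20 µl suspension were added to 384-well plates already holding compound at 5 concentrations, spaced in 10-fold steps across a compound-specific 10,000-fold range, and incubated for 72 h. CellTox Green fluorescence (485/520 nm) was read first to measure cell death, followed by CellTiter-Glo luminescence for viability after 10 min at room temperature. Each plate was normalised to 0.1 % DMSO and a positive kill control. EC50 values came from dose-response curve fits and were censored at the top concentration.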

[3] = tested on: MFM-223; settings: 72 h
Method in brief: as §1

[4] = tested on: CAL-120; settings: 72 h
Method in brief: as §1

[5] = tested on: BT-474; settings: 72 h
Method in brief: as §1

[6] = tested on: HDQ-P1; settings: 72 h
Method in brief: as §1

[7] = tested on: MDA-MB-453; settings: 72 h
Method in brief: as §1

[8] = tested on: HCC1143; settings: 72 h
Method in brief: as §1

[9] = tested on: DU-4475; settings: 72 h
Method in brief: as §1

[10] = tested on: SK-BR-3; settings: 72 h
Method in brief: as §1

[11] = tested on: CAL-148; settings: 72 h
Method in brief: as §1

[12] = tested on: MDA-MB-436; settings: 72 h
Method in brief: as §1

[13] = tested on: MDA-MB-231; settings: 72 h
Method in brief: as §1

[14] = tested on: HCC1599; settings: 72 h
Method in brief: as §1

[15] = tested on: Hs578T; settings: 72 h
Method in brief: as §1

[16] = tested on: HCC1937; settings: 72 h
Method in brief: as §1

[17] = tested on: CAL-51; settings: 72 h
Method in brief: as §1

[18] = tested on: MCF-10A; settings: 72 h
Method in brief: as §1

[19] = tested on: CAL-85-1; settings: 72 h
Method in brief: as §1

[20] = tested on: BT-549; settings: 72 h
Method in brief: as §1

[21] = tested on: HDQ-P1; settings: 72 h; remark: listed apart in the source
Protocol: (§2)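 Drug sensitivity and resistance testing (DSRT) of breast cancer cell lines in 384-well plates, 5 concentrations in 10-fold dilutions over a compound-specific 10,000-fold range. After 72 h, cytotoxicity was read by CellTox Green fluorescence and viability by CellTiter-Glo luminescence (multiplexed), normalised to DMSO and benzethonium chloride controls. EC50 is the inflection point of the fitted dose-response curve (bottom asymptote free, so it can be relative for partial curves) and is censored at the highest tested concentration. Rows with DSS 0 (no meaningful response) were excluded.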

[22] = tested on: HCC1143; settings: 72 h; remark: listed apart in the source
Protocol: as §2

[23] = tested on: DU-4475; settings: 72 h; remark: listed apart in the source
Protocol: as §2

[24] = tested on: CAL-148; settings: 72 h; remark: listed apart in the source
Protocol: as §2

[25] = tested on: MDA-MB-231; settings: 72 h; remark: listed apart in the source
Protocol: as §2

[26] = tested on: Hs578T; settings: 72 h; remark: listed apart in the source
Protocol: as §2

[27] = tested on: CAL-51; settings: 72 h; remark: listed apart in the source
Protocol: as §2

[28] = tested on: MCF-10A; settings: 72 h; remark: listed apart in the source
Protocol: as §2

[29] = tested on: CAL-85-1; settings: 72 h; remark: listed apart in the source
Protocol: as §2

[30] = tested on: BT-474; settings: 72 h; remark: listed apart in the source
Protocol: as §2

[31] = tested on: HDQ-P1; settings: 72 h; remark: listed apart in the source
Method in brief: (§3)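 After 72 h on 384-well plates pre-loaded with compound in 5 µl medium, breast cancer cell lines seeded in 20 µl were assayed for viability with 2.5 µl CellTiter-Blue at 37 °C for 2 h, read at 560/590 nm. Each plate was quality-checked by Z'-factor and normalised to vehicle and a positive kill control. EC50 comes from the fitted percent-inhibition dose-response curve, censored at the top concentration, and rows scoring zero for drug sensitivity were left out.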

[32] = tested on: MDA-MB-453; settings: 72 h; remark: listed apart in the source
Method in brief: as §3

[33] = tested on: DU-4475; settings: 72 h; remark: listed apart in the source
Method in brief: as §3

[34] = tested on: CAL-85-1; settings: 72 h; remark: listed apart in the source
Method in brief: as §3

[35] = tested on: HCC1143; settings: 72 h; remark: listed apart in the source
Method in brief: as §3

[36] = tested on: MFM-223; settings: 72 h; remark: listed apart in the source
Method in brief: as §3

[37] = tested on: MDA-MB-231; settings: 72 h; remark: listed apart in the source
Method in brief: as §3

[38] = tested on: HCC1599; settings: 72 h; remark: listed apart in the source
Method in brief: as §3

[39] = tested on: Hs578T; settings: 72 h; remark: listed apart in the source
Method in brief: as §3

[40] = tested on: BT-474; settings: 72 h; remark: listed apart in the source
Method in brief: as §3

[41] = tested on: MDA-MB-468; settings: 72 h; remark: listed apart in the source
Method in brief: as §3

SMILES: OC[C@H]1O[C@@H](n2cnc3c2N=CNC[C@H]3O)C[C@@H]1O [Pentostatin]
drug sensitivity score [1]: 0

EC50, CellTiter-Glo [2]: > 10000 nM | EC50, CellTiter-Glo [5]: > 10000 nM
SMILES: N#CC[C@H](C1CCCC1)n1cc(-c2ncnc3[nH]ccc23)cn1 [Ruxolitinib]
EC50, CellTiter-Glo [3]: > 10000 nM | EC50, CellTiter-Glo [4]: 1670 nM | drug sensitivity score [1]: 0

EC50, CellTiter-Glo [5]: > 10000 nM
SMILES: C=CC[C@@H]1/C=C(\C)C[C@H](C)C[C@H](OC)[C@H]2O[C@@](O)(C(=O)C(=O)N3CCCC[C@H]3C(=O)O[C@H](/C(C)=C/[C@@H]3CC[C@@H](O)[C@H](OC)C3)[C@H](C)[C@@H](O)CC1=O)[C@H](C)C[C@@H]2OC [Tacrolimus]
drug sensitivity score [1]: 0

EC50, CellTiter-Glo [2]: 532 nM | EC50, CellTiter-Glo [7]: 23.4 nM | EC50, CellTiter-Glo [8]: 63 nM | EC50, CellTiter-Glo [10]: 46.3 nM | EC50, CellTiter-Glo [12]: 28 nM | EC50, CellTiter-Glo [13]: 371 nM | EC50, CellTiter-Glo [14]: 266 nM | EC50, CellTiter-Glo [16]: 113 nM | EC50, CellTiter-Glo [20]: 52.9 nM | EC50, CellTiter-Glo [5]: 324 nM | EC50, CellTiter-Blue viability [32]: 15.5 nM | EC50, CellTiter-Blue viability [35]: 8.84 nM | EC50, CellTiter-Blue viability [37]: 722 nM | EC50, CellTiter-Blue viability [38]: 84.3 nM | EC50, CellTiter-Blue viability [40]: 48.4 nM
SMILES: C=CCNC1=C2C[C@@H](C)C[C@H](OC)[C@H](O)[C@@H](C)/C=C(\C)[C@H](OC(N)=O)[C@@H](OC)/C=C\C=C(/C)C(=O)NC(=CC1=O)C2=O [Tanespimycin]
EC50, CellTiter-Glo [6]: 103 nM | EC50, CellTiter-Glo [9]: 208 nM | EC50, CellTiter-Glo [11]: 178 nM | EC50, CellTiter-Glo [3]: 64.1 nM | EC50, CellTiter-Glo [15]: 97.9 nM | EC50, CellTiter-Glo [17]: 78.2 nM | EC50, CellTiter-Glo [4]: 269 nM | EC50, CellTiter-Glo [18]: 87.8 nM | EC50, CellTiter-Glo [19]: 404 nM | EC50, CellTox Green [21]: 112 nM | EC50, CellTox Green [22]: > 10000 nM | EC50, CellTox Green [23]: 179 nM | EC50, CellTox Green [24]: 112 nM | EC50, CellTox Green [25]: 24.8 nM | EC50, CellTox Green [26]: 4340 nM | EC50, CellTox Green [27]: 122 nM | EC50, CellTox Green [28]: 105 nM | EC50, CellTox Green [29]: 46.1 nM | EC50, CellTox Green [30]: 696 nM | EC50, CellTiter-Blue viability [31]: 82.7 nM | EC50, CellTiter-Blue viability [33]: 48.4 nM | EC50, CellTiter-Blue viability [34]: 194 nM | drug sensitivity score [1]: 0 | EC50, CellTiter-Blue viability [36]: 18.4 nM | EC50, CellTiter-Blue viability [39]: 36.9 nM

EC50, CellTiter-Glo [2]: 0.15 nM | EC50, CellTiter-Glo [7]: 1.5 nM | EC50, CellTiter-Glo [8]: 0.8 nM | EC50, CellTiter-Glo [10]: 0.46 nM | EC50, CellTiter-Glo [12]: 6.71 nM | EC50, CellTiter-Glo [16]: 0.46 nM | EC50, CellTiter-Glo [20]: 0.32 nM | EC50, CellTiter-Blue viability [32]: 0.37 nM | EC50, CellTiter-Blue viability [41]: 0.39 nM | EC50, CellTiter-Blue viability [35]: 1.62 nM | EC50, CellTiter-Blue viability [40]: 0.67 nM
SMILES: CO[C@H]1C[C@@H]2CC[C@@H](C)[C@@](O)(O2)C(=O)C(=O)N2CCCC[C@H]2C(=O)O[C@H]([C@H](C)C[C@@H]2CC[C@@H](OC(=O)C(C)(CO)CO)[C@H](OC)C2)CC(=O)[C@H](C)/C=C(\C)[C@@H](O)[C@@H](OC)C(=O)[C@H](C)C[C@H](C)/C=C/C=C/C=C/1C [Temsirolimus]
EC50, CellTiter-Glo [6]: 17.9 nM | EC50, CellTiter-Glo [9]: 1.42 nM | EC50, CellTiter-Glo [11]: 1.28 nM | EC50, CellTiter-Glo [3]: 0.77 nM | EC50, CellTiter-Glo [15]: 0.15 nM | EC50, CellTiter-Glo [17]: 0.65 nM | EC50, CellTiter-Glo [4]: 1.08 nM | EC50, CellTiter-Glo [19]: 0.67 nM | EC50, CellTox Green [26]: 1.28 nM | EC50, CellTiter-Blue viability [31]: 1.34 nM | EC50, CellTiter-Blue viability [33]: 2.16 nM | EC50, CellTiter-Blue viability [34]: 0.11 nM | drug sensitivity score [1]: 13.1 | EC50, CellTiter-Blue viability [36]: 0.18 nM | EC50, CellTiter-Blue viability [39]: 1 nM

SMILES: C[C@]1(c2nc3c(C(N)=O)cccc3[nH]2)CCCN1 [Veliparib]
EC50, CellTiter-Glo [17]: 50 nM | EC50, CellTox Green [29]: > 10000 nM | drug sensitivity score [1]: 0

SMILES: CS(=O)(=O)c1ccc(C(=O)Nc2ccc(Cl)c(-c3ccccn3)c2)c(Cl)c1 [Vismodegib]
EC50, CellTox Green [26]: > 10000 nM | drug sensitivity score [1]: 0
